pIC50: −log10 of the molar value. Read-outs that look alike come from different tables or passages of the source.

The subject of one experiment is HeLa. The experiment in a line: combination with BIBR1532, relative growth by ATPlite. The class given is cell-based, human. The note with it: 10 µM BIBR1532, 0.25 µM iKU-1 or their combination, 4 days. (In general: In ATP-based viability assays light output follows the ATP content of the culture.)
The subject of a further experiment is U2OS. Described as above. In kind it is cell-based, human. Particulars: 10 µM BIBR1532, 0.25 µM iKU-1 or their combination, 4 days.
The next experiment relates to HCT116. The description is as above. The class given is cell-based, human. Particulars: HCT116; 10 µM BIBR1532, 0.25 µM iKU-1 or their combination; 4 days. How it is done: 10,000 HCT116 cells were seeded in 100 µl of McCoy's 5a medium supplemented with 10% Fetal Bovine Serum, 2 mM L-Glutamine and Penicilin/Streptomycin 200 U/l for 1 day in 96well plate and treated with 10 µM BIBR1532, 0.25 µM of iKU-1 or their combination for 4 days. Number of viable cells was measured by ATPlite kit (Perkin Elmer) and normalized to the treatment with 0.5% DMSO. The results presented in Table 2 show a synergistic effect of iKU-1 and BIBR1532 on the growth of HCT116 tumor cell line. Values in the table indicate relative growth assessed by ATPlite kit compared to the control sample treated with 0.5% DMSO after 4 days of treatment.

Experiment [1] has as its system HCT116 cells. The experiment in a line: C-circle assay (extrachromosomal circular telomeric DNA). In kind it is cell-based, human. The note with it: C-circle assay in HCT116 cells treated for 3 to 7 days. On the procedure:
HCT116 cell were incubated for 3, 5 or 7 days in McCoy's 5a medium with 10% Fetal Bovine Serum, 2 mM L-Glutamine and Penicilin/Streptomycin 200 U/l each and supplemented with Compound 1-9. C-circle assay that utilizes rolling circle amplification of circular DNA by φ29 polymerase was performed as described in Henson, J.D., Lau, L.M., Koch, S., Martin La Rotta, N., Dagg, R.A., and Reddel, R.R. (2017). The C-Circle Assay for alternative-lengthening-of-telomeres activity. Methods 114, 74-84. Amplified circular telomeric DNA was detected by dot blot hybridization with P^32-labeled telomeric DNA oligonucleotide (5'-[…]-3' (SEQ ID NO: 6)) (Figure 4).

For the next experiment, the target named is Ku complex (Homo sapiens, UniProt P12956+P13010). The experiment in a line: microwell protein induced fluorescent enhancement assay (mwPIFE) of Ku-DNA binding. Particulars: for remaining activity at 8 µM: read-out: % binding at 8 µM (100% = 0.5% DMSO); for pIC50: estimated from the 0.5 to 8 µM concentration range, read-out: Inhibition of Ku-DNA binding IC50. How it is done: A rapid method for detecting protein-nucleic acid interactions by protein induced fluorescence enhancement. Sci Rep 6, 39653. mwPIFE is based on enhanced fluorescence of cyanine fluorophores attached to nucleic acid probes upon protein binding. […] The probe was immobilized in 96 well plates through biotin (Btn) attached to one end of DNA and incubated with purified Ku complex (0.5 pmol) in 50 µl of binding buffer (10 mM calcium acetate, 60 mM potassium acetate, 20 mM TRISacetate pH 7.9, 100 mg BSA/1). Ku-DNA binding was calculated from altered fluorescence measured by a fluorescence plate reader (Valuchova et al., 2016). […]
Ku complex, sequence (P12956 whole entry): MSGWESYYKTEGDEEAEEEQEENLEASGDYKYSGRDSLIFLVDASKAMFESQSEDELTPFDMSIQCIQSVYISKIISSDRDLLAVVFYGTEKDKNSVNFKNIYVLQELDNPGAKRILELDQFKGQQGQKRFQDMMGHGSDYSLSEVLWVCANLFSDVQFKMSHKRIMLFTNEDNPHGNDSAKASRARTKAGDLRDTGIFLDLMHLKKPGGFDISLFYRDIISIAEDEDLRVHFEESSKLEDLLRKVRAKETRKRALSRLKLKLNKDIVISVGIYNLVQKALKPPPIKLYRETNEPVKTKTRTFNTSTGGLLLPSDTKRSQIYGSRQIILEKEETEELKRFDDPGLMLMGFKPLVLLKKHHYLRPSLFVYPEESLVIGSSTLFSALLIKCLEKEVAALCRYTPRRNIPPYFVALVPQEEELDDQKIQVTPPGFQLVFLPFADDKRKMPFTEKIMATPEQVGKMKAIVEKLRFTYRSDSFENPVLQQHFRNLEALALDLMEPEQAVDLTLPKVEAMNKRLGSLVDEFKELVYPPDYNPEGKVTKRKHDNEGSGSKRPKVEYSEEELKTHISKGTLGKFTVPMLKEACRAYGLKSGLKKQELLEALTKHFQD
Ku complex, sequence (P13010 whole entry): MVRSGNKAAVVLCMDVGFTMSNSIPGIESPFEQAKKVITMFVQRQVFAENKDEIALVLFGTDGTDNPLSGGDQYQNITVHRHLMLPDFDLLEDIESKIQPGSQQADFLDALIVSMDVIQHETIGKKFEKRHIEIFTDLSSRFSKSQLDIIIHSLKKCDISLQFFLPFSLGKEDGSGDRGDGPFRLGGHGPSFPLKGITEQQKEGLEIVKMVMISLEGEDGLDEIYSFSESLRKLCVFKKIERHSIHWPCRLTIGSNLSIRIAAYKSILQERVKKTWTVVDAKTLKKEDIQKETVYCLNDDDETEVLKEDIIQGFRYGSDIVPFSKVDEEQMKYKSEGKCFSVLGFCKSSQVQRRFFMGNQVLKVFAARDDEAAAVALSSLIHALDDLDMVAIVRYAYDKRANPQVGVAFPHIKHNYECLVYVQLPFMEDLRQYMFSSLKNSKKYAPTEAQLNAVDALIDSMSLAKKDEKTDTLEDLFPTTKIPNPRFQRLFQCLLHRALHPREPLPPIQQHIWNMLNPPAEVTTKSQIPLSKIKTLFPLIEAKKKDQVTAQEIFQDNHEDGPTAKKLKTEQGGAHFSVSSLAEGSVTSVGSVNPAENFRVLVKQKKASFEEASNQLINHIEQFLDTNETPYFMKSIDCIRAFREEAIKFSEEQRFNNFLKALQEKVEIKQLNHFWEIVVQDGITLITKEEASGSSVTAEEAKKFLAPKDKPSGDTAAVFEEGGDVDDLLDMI

In experiment [2] the test system is HCT116 cells. The experiment in a line: cell proliferation, ATPlite assay. The class given is cell-based. The note with it: Homo sapiens, HCT-116, 120 h, read-out: Inhibition of cell proliferation IC50. On the procedure:
HCT116, U2OS and HeLa cells were grown in McCoy's 5a medium supplemented with 10% Fetal Bovine Serum, 2 mM L-Glutamine and Penicilin/Streptomycin 200 U/l each in the presence of Compound 1-9. After growth at 37 °C, 5% CO2 for 3 days, monolayer of cells was detached using TrypLE Express (Gibco), cells were counted using 0.4% trypan blue stain and hemocytometer. […] Number of viable cells was estimated using ATPlite kit (Perkin Elmer).

For experiment [3] the following is noted: literature (Weterings et al. 2016); cited from earlier work.
Another experiment concerns A2780. The experiment in a line: growth of A2780 cells by ATPlite, alone and in combination with Bleomycin. Particulars: A2780; 0.025 µg/ml Bleomycin, 0.5 µM iKU-1 or their combination; 7 days. In kind it is cell-based, human. How it is done: 2,000 A2780 cells were seeded in 100 µl of RPMI 1640 medium with 300 mg/l L-Glutamine and 10% Fetal Bovine Serum for 1 day in 96well plate and treated by 0.025 µg/ml of Bleomycin, 0.5 µM of iKu-1 or their combination for 7 days. Number of viable cells was measured by ATPlite kit (Perkin Elmer) and normalized to the treatment with 0.5% DMSO.
Values in the table indicate relative growth assessed by ATPlite kit compared to the control sample treated with 0.5% DMSO after 7 days of treatment.
2,000 SKOV3 and A2780 cells were seeded in 100 µl of McCoy's 5a or RPMI 1640 media, respectively, for one day and then incubated with iKU-1 for 7 days. Number of viable cells was measured by ATPlite kit (Perkin Elmer) and normalized to the treatment with 0.5% DMSO.

[4] abbreviates: mwPIFE, 8 µM inhibitor compared to 0.5% DMSO.
Setting [5] is: ATPlite assay in HCT116 cells treated for 5 days.

For `C/C(=C\C(=O)Nc1ccccc1C(=O)O)c1ccc2ccccc2c1` [BIBR1532, reference compound], the entries for the “relative growth assessed by ATPlite kit compared to the control sample treated with 0.5% DMSO” value in the experiment with HeLa, with U2OS and in the experiment with HCT116 were 0.92, 0.88 and 0.88, respectively.

For the compound `O=C(Nc1nc(-c2ccccn2)cs1)c1cccnc1` [Compound 2], the “Concentration inducing c-circle formation” value with HCT116 cells [1] is 5 µM. Further, the remaining activity at 8 µM at Ku complex (setting [4]) is 97%. Further, in the experiment on HCT116 cells [2] (setting [5]), the pIC50 was more than 5.30.

`O=C(Nc1nc(-c2ccccn2)cs1)c1cccc(Br)c1` [Compound 3]: the remaining activity at 8 µM on Ku complex (setting [4]) was found to be 76%. Also, in the experiment with HCT116 cells [2] (setting [5]), the pIC50 was more than 5.30.

`O=C(Nc1nc(-c2ccccn2)cs1)c1ccc(NC2CC2)nc1` [Compound 4]: the “Concentration inducing c-circle formation” value with HCT116 cells [1] was 10 µM. Also, the values for the pIC50 at Ku complex (mwPIFE) and in the experiment with HCT116 cells [2] were 5.15 and 5.10, respectively. Besides, the remaining activity at 8 µM on Ku complex was 47%.

`CC(=O)NCCc1ccc(-c2csc(NC(=O)c3cncc(Br)c3)n2)cc1` [Compound 5]: the figures for the pIC50 on Ku complex (mwPIFE) and with HCT116 cells [2] were less than 5.10 and more than 5.30, respectively. Moreover, the remaining activity at 8 µM at Ku complex came out at 75%.

For the compound `CC(=O)Nc1ccc(-c2csc(NC(=O)c3cncc(Br)c3)n2)cc1` [Compound 6], the pIC50 on Ku complex (mwPIFE) was less than 5.10; in the experiment on HCT116 cells [2] it was 4.70. In addition, the remaining activity at 8 µM on Ku complex was 55%.

As to `O=C(Nc1nc(-c2cccnc2)cs1)c1cncc(Br)c1` [Compound 7], the “Concentration inducing c-circle formation” value in the experiment on HCT116 cells [1] is given as 50 µM. Also, the pIC50 at Ku complex (mwPIFE) was less than 5.10; in the experiment with HCT116 cells [2] it was less than 4.70. For the same compound, the remaining activity at 8 µM at Ku complex is 55%.

As to `O=C(Nc1nc(-c2ccccc2)cs1)c1cncc(Br)c1` [Compound 8], the “Concentration inducing c-circle formation” value in the experiment with HCT116 cells [1] was 50 µM. Besides, the pIC50 on Ku complex (mwPIFE) was less than 5.10; with HCT116 cells [2], less than 4.70. Also, on Ku complex, the remaining activity at 8 µM is 71%.

For the compound `Cc1ccc(C(=O)Nc2nc(-c3ccccc3)cs2)cc1` [Compound 9], the “Concentration inducing c-circle formation” value with HCT116 cells [1] came out at 20 µM. Moreover, the remaining activity at 8 µM on Ku complex (setting [4]) was 99%. For the same compound, the pIC50 at Ku complex (mwPIFE) was less than 5.10; in the experiment on HCT116 cells [2] (setting [5]), 5.05.

As for `COc1ccc(CCNc2ncc3c(=O)n(-c4cccc(F)c4)c(=O)[nH]c3n2)cc1OC` [STL127705], the “concentration conferring enhanced sensitivity to irradiation” value in experiment [3] was 20 to 30 µM.

As to Bleomycin [reference compound], the “relative growth assessed by ATPlite kit compared to the control sample treated with 0.5% DMSO” value in the experiment with A2780 is given as 1.00.

The record behind these values is patent EP4342467A1, “KU INHIBITORS FOR USE IN TUMOR THERAPY” (Masarykova Univerzita, priority 2022, dated 2024).
